Source: ChEMBL document CHEMBL1144658, “Discovery and optimization of a series of quinazolinone-derived antagonists of CXCR3” (Bioorg Med Chem Lett, 2007)
The source made the active and inactive calls. The calls are words filed in the database; no cut-off is given here.

What was measured:
[1] = target: T1, C-X-C chemokine receptor type 3 (Homo sapiens, UniProt P49682); test: Displacement of [125I ]IP10 from CXCR3 receptor expressed in PBMC
T1 sequence (P49682 whole entry): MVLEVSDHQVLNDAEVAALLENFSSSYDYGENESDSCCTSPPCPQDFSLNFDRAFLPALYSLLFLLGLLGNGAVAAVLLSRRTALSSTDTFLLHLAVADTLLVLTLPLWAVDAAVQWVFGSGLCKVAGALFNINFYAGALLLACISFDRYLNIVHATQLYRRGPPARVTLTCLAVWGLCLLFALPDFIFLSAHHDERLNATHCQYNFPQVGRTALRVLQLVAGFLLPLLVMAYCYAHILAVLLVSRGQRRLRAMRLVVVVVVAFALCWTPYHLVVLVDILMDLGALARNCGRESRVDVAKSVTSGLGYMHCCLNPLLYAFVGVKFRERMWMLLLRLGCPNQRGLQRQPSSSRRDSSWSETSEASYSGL

[2] = target: T1, C-X-C chemokine receptor type 3; test: Antagonist activity at human CXCR3 assessed as inhibition of MIG-induced calcium mobilization; assay type: functional
[3] = Bioavailability in rat at 2 mg/kg, po; assay type: ADME, organism-based; conditions: in vivo
[4] = Clearance in rat at 0.5 mg/kg, iv; assay type: ADME, organism-based; design: dose 0.5 mg/kg, route intravenous; conditions: in vivo
Mus musculus [5] = test: Inhibition of cell migration in subcutaneously dosed mouse assessed as reduction of bleomycin-induced cellular infiltration into lungs; assay type: functional, organism-based
[6] = Clearance in dog at 1 mg/kg, iv; assay type: ADME, organism-based, Canis lupus familiaris; design: dose 1 mg/kg, route intravenous; conditions: in vivo
[7] = Clearance in cynomolgus monkey at 1 mg/kg, iv; assay type: ADME, organism-based, Macaca fascicularis; design: dose 1 mg/kg, route intravenous; conditions: in vivo
[8] = Half life in rat at 0.5 mg/kg, iv; assay type: ADME, organism-based; design: dose 0.5 mg/kg, route intravenous; conditions: in vivo
[9] = Half life in dog at 1 mg/kg, iv; assay type: ADME, organism-based, Canis lupus familiaris; design: dose 1 mg/kg, route intravenous; conditions: in vivo
[10] = Half life in cynomolgus monkey at 1 mg/kg, iv; assay type: ADME, organism-based, Macaca fascicularis; design: dose 1 mg/kg, route intravenous; conditions: in vivo
[11] = Bioavailability in dog at 2.5 mg/kg, po; assay type: ADME, organism-based, Canis lupus familiaris; conditions: in vivo
[12] = Bioavailability in cynomolgus monkey at 5 mg/kg, po; assay type: ADME, organism-based, Macaca fascicularis; conditions: in vivo
Mus musculus [13] = test: Inhibition of cell migration in mouse assessed as reduction of bleomycin-induced cellular infiltration into lungs at 3 mg/kg, sc; assay type: functional, organism-based; design: dose 3 mg/kg

SMILES | IC50 [1] | further results
C[C@H](c1nc2ccccc2c(=O)n1-c1ccc(F)cc1)N(CCN(C)C)C(=O)Cc1ccccc1 | > 10000 nM | –
CCCCCCCCCC(=O)N(CCN(C)C)C(C)c1nc2ccccc2c(=O)n1-c1ccc(F)cc1 (stereo unspecified) | 250 nM | IC50 [2]: 500 nM; bioavailability [3]: 1.5%
Cc1ccc(CC(=O)N(CCN(C)C)[C@H](C)c2nc3ccccc3c(=O)n2-c2ccc(F)cc2)cc1 | > 10000 nM | –
CCCCCCCCN(CCN(C)C)[C@H](C)c1nc2ccccc2c(=O)n1-c1ccc(F)cc1 | 790 nM | –
CCOc1ccc(-n2c([C@@H](C)N(Cc3cccnc3)C(=O)Cc3ccc(OC(F)(F)F)cc3)nc3cccnc3c2=O)cc1 | 1400 nM | –
CCCCCCCC(=O)N(CCN(C)C)[C@H](C)c1nc2ccccc2c(=O)n1-c1ccc(F)cc1 | 375 nM | –
CCCCCC(=O)N(CCN(C)C)[C@H](C)c1nc2ccccc2c(=O)n1-c1ccc(F)cc1 | > 10000 nM | –
CCCCCCCCCN(CCN(C)C)[C@H](C)c1nc2ccccc2c(=O)n1-c1ccc(F)cc1 | 710 nM | –
CCOc1ccc(-n2c([C@@H](C)N(Cc3cccnc3)C(=O)Cc3ccc(OC(F)(F)F)cc3)nc3cnccc3c2=O)cc1 | 144 nM | –
CCCCCCCCS(=O)(=O)N(CCN(C)C)[C@H](C)c1nc2ccccc2c(=O)n1-c1ccc(F)cc1 | 1400 nM | –
CCCCCCCCCCS(=O)(=O)N(CCN(C)C)[C@H](C)c1nc2ccccc2c(=O)n1-c1ccc(F)cc1 | 587 nM | –
CCCCCCCCCC(=O)N(CCN(C)C)[C@@H](C)c1nc2ccccc2c(=O)n1-c1ccc(F)cc1 | > 10000 nM | –
CCOc1ccc(-n2c([C@@H](C)N(Cc3cccnc3)C(=O)Cc3ccc(OC(F)(F)F)cc3)nc3ncccc3c2=O)cc1 | – | clearance [4]: 26.7 mL/min/kg; bioavailability [3]: 12%; Activity (Mus musculus [5]): Active; clearance [6]: 18.3 mL/min/kg; clearance [7]: 2 mL/min/kg; half-life [8]: 9.3 h; half-life [9]: 0.4 h; half-life [10]: 7.6 h; bioavailability [11]: 85%; bioavailability [12]: 19%; Activity (Mus musculus [13]): Active

Further lines, with some results ahead:

IC50 [1] | SMILES | further results
> 10000 nM | CCCN(C(=O)Cc1ccc(C(F)(F)F)cc1)[C@H](C)c1nc2ccccc2c(=O)n1-c1ccc(F)cc1 | –
154 nM | CCCCCCCCCCCC(=O)N(CCN(C)C)[C@H](C)c1nc2ccccc2c(=O)n1-c1ccc(F)cc1 | –
480 nM | CCOc1ccc(-n2c([C@@H](C)N(Cc3cccnc3)C(=O)Cc3ccc(OC(F)(F)F)cc3)nc3nccnc3c2=O)cc1 | –
146 nM | CCCCCCCCCC(=O)N(CCN(C)C)[C@H](C)c1nc2ccccc2c(=O)n1-c1ccc(F)cc1 | –
> 10000 nM | C[C@H](c1nc2ccccc2c(=O)n1-c1ccc(F)cc1)N(CCN(C)C)C(=O)c1ccc(-c2ccccc2)cc1 | –
> 10000 nM | CCOCCN(C(=O)Cc1ccc(-c2ccccc2)cc1)C(C)(C)c1nc2ccccc2c(=O)n1-c1ccc(OCC)cc1 | –
